Measured values published in ChEMBL document CHEMBL1145357, “Antitumor anthraquinones from an endophytic actinomycete Micromonospora lupini sp. nov” (Bioorg Med Chem Lett, 2007).
Active and inactive are the calls of the source. The rule behind the calls is not given here.

How the values were obtained:
[1] = Inhibition of invasion of mouse 26-L5 cells; format: functional
Mus musculus = species on record: Mus musculus; test: Growth inhibition of mouse 26-L5 cells at 3 ug/ml by WST1 method; format: functional

IC50 [1] | Compound | Activity (Mus musculus)
210 nM | Cc1c(O)c(CCC(C)C)c2c(c1O)C(=O)c1cccc(O)c1C2=O [LUPINACIDIN A] | Active
920 nM | CCCCc1c(O)c(C)c(O)c2c1C(=O)c1c(O)cccc1C2=O [LUPINACIDIN B] | inactive
